From ChEMBL document CHEMBL1629472, “2-Acetylpyridine thiosemicarbazones: cytotoxic activity in nanomolar doses against malignant gliomas” (Eur J Med Chem, 2010)

Legend:
[1] = Cytotoxicity against human T98 cells expressing p53 mutant after 48 hrs by MTT assay; assay type: functional, cell-based; details: T98, 48 h
[2] = Cytotoxicity against erythrocytes assessed as hemolysis; assay type: cell-based; details: erythrocyte
[3] = Cytotoxicity against rat RT2 cells expressing wild type p53 after 48 hrs by MTT assay; assay type: functional, cell-based; details: RT2, 48 h

| SMILES | IC50 [1] [nM] | Hemolytic concentration [2] [mM] | IC50 [3] [nM] |
| --- | --- | --- | --- |
| C/C(=N\NC(=S)Nc1ccccc1Cl)c1ccccn1 | 1.1 | > 1 | 1.4 |
| C/C(=N\NC(=S)Nc1ccc(Cl)cc1)c1ccccn1 | 5.9 | > 1 | 3.7 |
| C/C(=N\NC(=S)Nc1cccc(C)c1)c1ccccn1 | 50 | > 1 | 24 |
| C/C(=N\NC(=S)Nc1ccccc1)c1ccccn1 | 6.8 | > 1 | 1.4 |
| C/C(=N\NC(=S)Nc1ccccc1C)c1ccccn1 | 34 | > 1 | 14 |
| C/C(=N\NC(=S)Nc1ccc(C)cc1)c1ccccn1 | 37 | > 1 | 17 |
| C/C(=N\NC(=S)Nc1cccc(Cl)c1)c1ccccn1 | 1 | > 1 | 9 |
